# Reference: ChEMBL document CHEMBL1201862, “PubChem BioAssay data set” (2004)
# The source made the active and inactive calls.
# Assays:
# [1] = target: T1, Heat shock factor protein 1 (Mus musculus, UniProt P38532); assay: HSF1 potentiators in luciferase reporter cells, confirmation, cell-based, NIH3T3, luminescence, dose retest (AID 435004); type: functional;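 also: stress induced by proteasome inhibitor MG132 added 30 min after compound; luciferase reporter driven by HSF1 response element in NIH3T3 cells; actives raise luminescence as potentiators of the MG132 stress response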
# T1 sequence (P38532 whole entry): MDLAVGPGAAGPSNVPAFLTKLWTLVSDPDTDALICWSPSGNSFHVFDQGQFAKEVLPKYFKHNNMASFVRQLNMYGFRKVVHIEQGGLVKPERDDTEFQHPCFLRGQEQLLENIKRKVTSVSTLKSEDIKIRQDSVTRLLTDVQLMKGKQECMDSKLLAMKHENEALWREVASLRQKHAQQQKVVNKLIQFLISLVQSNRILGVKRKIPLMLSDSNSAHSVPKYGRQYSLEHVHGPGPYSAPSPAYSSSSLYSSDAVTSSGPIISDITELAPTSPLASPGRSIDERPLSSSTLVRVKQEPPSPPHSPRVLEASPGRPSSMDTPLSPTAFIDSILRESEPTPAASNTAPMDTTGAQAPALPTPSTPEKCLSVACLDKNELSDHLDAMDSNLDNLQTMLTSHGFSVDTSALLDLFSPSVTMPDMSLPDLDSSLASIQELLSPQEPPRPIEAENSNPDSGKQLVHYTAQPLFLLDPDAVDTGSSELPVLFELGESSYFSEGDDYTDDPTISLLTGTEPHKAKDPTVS
# Cytochrome P450 2C19 = Cytochrome P450 2C19 (Homo sapiens, UniProt P33261); assay: Cytochrome panel assay with activity outcomes. Panel member name: p450-cyp2c19 Compounds with AC50 equal or less than 10 uM are considered active; type: functional
# Cytochrome P450 3A4 = Cytochrome P450 3A4 (Homo sapiens, UniProt P08684);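 also: CYP3A4 tested as one member of a cytochrome P450 panel screen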
# cells [2] = type: functional, cell-based
# cells [3] = type: functional, cell-based; remark: listed apart in the source
# INS1 = assay: beta cell apoptosis inhibitors, cytokine rescue, dose response, luminescence, retest (AID 449756); type: functional, cell-based; settings: Rattus norvegicus;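 also: cell death triggered by IL-1 beta plus TNF-alpha plus IFN-gamma mixture; protective hits raise ATP signal compared with cytokine alone wells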
# [4] = target: T2, Replicative DNA helicase DnaB (Mycobacterium tuberculosis, UniProt P9WMR3); assay: DnaB intein splicing inhibitors, dose response, biochemical, cell-free fluorescence (AID 449749); type: functional
# T2 sequence (P9WMR3 whole entry): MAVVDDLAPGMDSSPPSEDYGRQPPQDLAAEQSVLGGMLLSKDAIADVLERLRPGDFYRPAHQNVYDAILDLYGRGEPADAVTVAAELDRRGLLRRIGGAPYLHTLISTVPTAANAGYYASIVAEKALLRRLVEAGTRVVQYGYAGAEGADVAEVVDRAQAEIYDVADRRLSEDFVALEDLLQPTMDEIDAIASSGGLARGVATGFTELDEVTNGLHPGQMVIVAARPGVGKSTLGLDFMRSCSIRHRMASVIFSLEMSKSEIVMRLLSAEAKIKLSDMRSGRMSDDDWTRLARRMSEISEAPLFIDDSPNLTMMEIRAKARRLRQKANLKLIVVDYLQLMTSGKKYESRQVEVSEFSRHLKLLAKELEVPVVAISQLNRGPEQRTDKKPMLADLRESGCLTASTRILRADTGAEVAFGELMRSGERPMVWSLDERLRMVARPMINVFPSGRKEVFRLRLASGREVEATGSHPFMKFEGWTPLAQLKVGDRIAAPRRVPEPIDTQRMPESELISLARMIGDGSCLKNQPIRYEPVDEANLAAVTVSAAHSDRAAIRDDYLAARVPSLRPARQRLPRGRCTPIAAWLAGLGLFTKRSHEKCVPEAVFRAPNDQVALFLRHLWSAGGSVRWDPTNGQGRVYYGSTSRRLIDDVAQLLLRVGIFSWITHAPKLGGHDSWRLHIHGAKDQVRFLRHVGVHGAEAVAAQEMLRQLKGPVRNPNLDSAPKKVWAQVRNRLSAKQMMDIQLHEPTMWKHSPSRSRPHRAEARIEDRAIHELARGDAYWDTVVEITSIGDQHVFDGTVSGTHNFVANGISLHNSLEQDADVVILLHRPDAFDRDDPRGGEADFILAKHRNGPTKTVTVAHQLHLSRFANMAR
# Protein RecA = target: T3, Protein RecA (Mycobacterium tuberculosis, UniProt P9WHJ3); assay: Fluorescence Cell-Free Homogeneous Dose Retest to Identify Inhibitors of RecA-Intein Splicing Activity. [Related pubchem assays (depositor defined):AID2097, AID2223, AID489010, AID492950]; type: functional
# T3 sequence (P9WHJ3 whole entry): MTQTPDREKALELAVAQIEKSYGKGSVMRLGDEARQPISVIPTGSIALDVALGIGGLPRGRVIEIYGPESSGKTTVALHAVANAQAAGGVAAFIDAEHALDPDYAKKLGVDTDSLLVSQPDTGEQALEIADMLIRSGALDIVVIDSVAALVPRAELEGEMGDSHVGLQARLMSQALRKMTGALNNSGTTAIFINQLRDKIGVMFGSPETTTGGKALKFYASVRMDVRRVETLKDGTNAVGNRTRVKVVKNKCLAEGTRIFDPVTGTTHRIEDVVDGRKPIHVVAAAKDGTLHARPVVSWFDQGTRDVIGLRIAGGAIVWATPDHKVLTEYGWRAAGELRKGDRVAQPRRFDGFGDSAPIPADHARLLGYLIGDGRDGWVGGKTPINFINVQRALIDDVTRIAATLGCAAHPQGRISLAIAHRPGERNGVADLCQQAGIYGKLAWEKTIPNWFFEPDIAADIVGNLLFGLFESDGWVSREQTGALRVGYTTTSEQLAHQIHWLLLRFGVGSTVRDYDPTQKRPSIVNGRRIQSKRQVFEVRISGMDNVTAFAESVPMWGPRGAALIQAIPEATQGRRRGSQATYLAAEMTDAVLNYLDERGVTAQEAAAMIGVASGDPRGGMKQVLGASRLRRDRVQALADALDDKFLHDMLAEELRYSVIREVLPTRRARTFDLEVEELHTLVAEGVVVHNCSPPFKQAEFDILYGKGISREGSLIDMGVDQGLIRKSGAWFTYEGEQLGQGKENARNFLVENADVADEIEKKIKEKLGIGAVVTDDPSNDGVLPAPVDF
# [5] = inhibitors of intracellular T. cruzi replication, confirmation, NIH3T3 host cells, beta-gal luminescence (AID 2044); type: functional, cell-based;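 also: intracellular parasites grown in NIH/3T3 mouse fibroblasts as host cells; luminescent beta-galactosidase reporter signal from transgenic T. cruzi replicating inside host cells; inhibitors lower the luminescence signal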
# [6] = cytotoxicity toward NIH3T3 fibroblasts, dose response, counter-screen, cell-based, ATP luminescence, mouse fibroblasts (AID 2010); type: functional;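 also: cells exposed to compound for about 90 hours before reading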
# [7] = Luminescence Cell-Based Dose Confirmation HTS to Identify Activators of 5'UTR Stem-Loop Driven Alpha-Synuclein mRNA Translation in H4 Neuroglioblastoma Cells. [Related pubchem assays: 1829 (Project Summary), 1814 (Primary HTS)]; type: functional
# [8] = Luminescence Cell-Based Dose Response HTS to Identify Activators of Luciferase Translation or Activity in H4 […] Cells. [Related pubchem assays: 1829 (Project Summary), 1814 (Primary HTS)]; type: functional
# H4 = assay: Luminescence Cell-Based Dose Response HTS to Identify Activators of 5'UTR Stem-Loop Driven Prion Protein mRNA Translation in H4 Neuroglioblastoma Cells. [Related pubchem assays: 1829 (Project Summary), 1814 (Primary HTS)]; type: functional; settings: Homo sapiens
# [9] = tested on: Streptococcus sp. 'group A'; assay: growth inhibition of control SK(-) GAS strain, dose response, counter-screen for streptokinase expression inhibitor project, luminescence, kanamycin, BacTiterGlo, confirmation (AID 1900); type: functional, organism-based
# Streptokinase A = target: T4, Streptokinase A (Streptococcus pyogenes serotype M1, UniProt P10520); assay: S. pyogenes streptokinase expression inhibitors, potency, dose response, plasminogen activation absorbance, OD405 (AID 1914); type: functional, Streptococcus pyogenes M1 GAS;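 also: secreted streptokinase activity via plasminogen activation per viability signal from cell pellet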
# T4 sequence (P10520 whole entry): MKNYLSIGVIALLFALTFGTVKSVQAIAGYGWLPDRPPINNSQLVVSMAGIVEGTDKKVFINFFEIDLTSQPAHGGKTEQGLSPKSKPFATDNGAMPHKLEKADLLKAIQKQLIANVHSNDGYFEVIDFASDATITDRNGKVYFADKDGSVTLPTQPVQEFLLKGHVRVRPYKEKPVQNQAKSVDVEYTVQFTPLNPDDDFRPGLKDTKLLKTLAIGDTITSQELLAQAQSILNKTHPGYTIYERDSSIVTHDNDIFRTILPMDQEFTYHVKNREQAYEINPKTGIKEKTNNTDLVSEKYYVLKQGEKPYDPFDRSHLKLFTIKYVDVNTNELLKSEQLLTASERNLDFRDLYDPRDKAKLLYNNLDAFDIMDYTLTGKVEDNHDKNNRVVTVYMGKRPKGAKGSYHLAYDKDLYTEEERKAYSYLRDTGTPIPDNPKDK
# Streptococcus = assay: Group A Streptococcus viability loss, dose response, counter-screen for streptokinase expression inhibitor project, luminescence, BacTiterGlo (AID 1915); type: functional, organism-based;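 also: potency for reduction of bacterial viability or growth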
# [10] = Luminescence Cell-Based Dose Retest to Confirm Inhibitors of Cancer Stem Cells. [Related pubchem assays (depositor defined):AID2717, AID2721]; type: functional; settings: Homo sapiens
# Chain of Cytochrome P450 3A4 (P08684 whole entry): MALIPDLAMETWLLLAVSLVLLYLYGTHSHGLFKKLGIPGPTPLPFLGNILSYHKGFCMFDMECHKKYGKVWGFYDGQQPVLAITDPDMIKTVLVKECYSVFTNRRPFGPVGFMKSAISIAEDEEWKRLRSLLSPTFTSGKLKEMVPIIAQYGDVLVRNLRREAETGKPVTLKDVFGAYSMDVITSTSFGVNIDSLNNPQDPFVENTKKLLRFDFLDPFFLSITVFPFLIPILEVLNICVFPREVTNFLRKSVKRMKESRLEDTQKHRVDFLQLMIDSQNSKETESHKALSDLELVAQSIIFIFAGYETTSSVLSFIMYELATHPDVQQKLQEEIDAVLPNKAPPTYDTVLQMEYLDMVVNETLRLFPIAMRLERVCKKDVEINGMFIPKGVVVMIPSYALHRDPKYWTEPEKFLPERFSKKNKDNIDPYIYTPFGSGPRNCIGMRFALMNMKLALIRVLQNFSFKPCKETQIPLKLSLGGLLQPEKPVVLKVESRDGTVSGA
# Chain of Cytochrome P450 2C19 (P33261 whole entry): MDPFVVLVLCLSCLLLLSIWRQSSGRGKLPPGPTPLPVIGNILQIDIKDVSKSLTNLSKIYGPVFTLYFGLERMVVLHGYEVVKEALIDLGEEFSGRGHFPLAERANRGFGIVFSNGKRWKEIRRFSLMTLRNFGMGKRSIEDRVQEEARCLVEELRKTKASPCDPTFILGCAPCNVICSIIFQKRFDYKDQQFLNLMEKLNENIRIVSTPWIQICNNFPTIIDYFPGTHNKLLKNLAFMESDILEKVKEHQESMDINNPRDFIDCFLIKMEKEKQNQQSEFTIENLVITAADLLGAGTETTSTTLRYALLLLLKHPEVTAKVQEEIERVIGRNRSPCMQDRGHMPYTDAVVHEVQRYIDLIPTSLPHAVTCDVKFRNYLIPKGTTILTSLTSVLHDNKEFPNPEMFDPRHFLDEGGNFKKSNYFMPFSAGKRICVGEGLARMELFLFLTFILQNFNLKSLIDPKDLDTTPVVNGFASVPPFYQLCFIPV
SMILES,EC50 [1],EC50 (cells [2]),EC50 (cells [3]),other results
Cc1nc2ncnn2c(C)c1CCC(=O)NCc1ccco1,> 260 µM (inactive),–,–,AC50 (Cytochrome P450 2C19): inconclusive; AC50 (Cytochrome P450 3A4): 10 µM (inconclusive)
O=C(CCCC1=NS(=O)(=O)c2ccccc2N1)N1CCN(c2ccccc2)CC1,> 260 µM (inactive),–,–,–
CCOc1ccc(C(=O)Nc2ccc3c(c2)OCCO3)cc1,> 260 µM (inconclusive),–,–,–
O=[N+]([O-])c1ccc(OCCCCN2CCCCC2)cc1,–,> 350 µM (not active),> 350 µM (not active),–
CC(C)(C)NC(=O)NC(=O)CN1CC=C(c2ccccc2)CC1,> 260 µM (inactive),–,–,–
Cc1nnc(Sc2nc3c(c(=O)n(C)c(=O)n3C)n2Cc2ccccc2Cl)s1,> 260 µM (inactive),–,–,–
CCc1cc(=O)oc2c(CNCc3ccccc3F)c(O)c(Cl)cc12,> 260 µM (inactive),–,–,–
CN(Cc1cccc(C(F)(F)F)c1)C(=O)C1CCC(=O)N(CC2CCCCC2)C1 (stereo unspecified),–,> 350 µM (not active),> 350 µM (not active),–
CCC(=O)c1ccc(N2CCN(C(=O)c3ccc(Br)cc3)CC2)c(F)c1,–,> 350 µM (not active),> 350 µM (not active),–
CCCCOC(=O)c1ccc(NC(=S)NC(=O)c2c(Br)c(C)nn2C)cc1,–,> 350 µM (not active),44.9 µM (active),–
CCOC(=O)c1ccc(S(=O)(=O)NNC(=O)COc2ccccc2C)cc1,–,> 350 µM (not active),> 350 µM (not active),–
CNc1nc(N)c([N+](=O)[O-])c(Nc2cccc(F)c2)n1,–,–,–,AC50 (INS1): > 260 µM (inactive)
Cc1cc2nc(CCN(C(S)=NCC3CCCO3)C3CCCC3)[nH]c2cc1C (stereo unspecified),> 260 µM (inactive),–,–,–
CC(=O)c1ccc(N(C(=O)c2csnn2)C(C(=O)NC(C)(C)C)c2cccs2)cc1 (stereo unspecified),–,> 350 µM (not active),> 350 µM (not active),–
Cc1ccc(C)c(S(=O)(=O)Nc2ccc(O)c3ccccc23)c1,–,–,–,AC50 [4]: 0.384 µM (active); EC50 (Protein RecA): 0.0745 µM (active); AC50 (INS1): 7.62 µM (active)
O=C(Cn1c(-c2ccccc2)c[n+]2ccsc12)c1ccc([N+](=O)[O-])cc1,–,–,–,EC50 [5]: 0.549 µM (active); EC50 [6]: > 60 µM (not active); AC50 (INS1): 11.6 µM (active)
CCOC(=O)C1(Cc2ccc(OC)cc2)CCN(C(=O)c2cc3ccccc3[nH]2)CC1,30.3 µM (active),–,–,–
[O-][n+]1c2ccccc2c2n1CCCN=C2c1ccc(Cl)cc1,–,–,–,EC50 [7]: 7.98 µM (active); EC50 [8]: 8.34 µM (active); EC50 (H4): 41.8 µM (active)
CCN=C(S)N1CCN(S(=O)(=O)c2cccc(C(F)(F)F)c2)CC1,> 260 µM (inactive),–,–,–
COC(=O)Nc1nnc(Cc2ccc(OC)cc2)s1,–,> 350 µM (not active),> 350 µM (not active),–
CCC(C)Sc1cccc(-c2nc3ccc(C)cn3c2NCc2ccccc2)c1 (stereo unspecified),–,–,–,EC50 [9]: 3.25 µM (active); EC50 (Streptokinase A): 4.26 µM (active); EC50 (Streptococcus): 10.3 µM (active); AC50 [10]: 2.75 µM (active); AC50 (INS1): 7.39 µM (active)
CCNS(=O)(=O)c1ccc(NC(=O)c2cncc(Br)c2)cc1,–,> 350 µM (not active),> 350 µM (not active),–
CCOc1ccccc1CN1CCNC(=O)C1CC(=O)NCc1nccn1CC (stereo unspecified),> 260 µM (inactive),–,–,–
CCn1c(SCC(=O)N/N=C/C=C/c2ccco2)nc2ccccc21,> 260 µM (inactive),–,–,–
Cc1ccc(/C=N/NC(=O)Cc2ccc(Cl)cc2)c(O)c1,–,–,–,EC50 [9]: 1.1 µM (active); EC50 (Streptococcus): 3.08 µM (active); AC50 (INS1): 3.76 µM (active)
C/C(=N\NC(=O)C(=O)Nc1cccc(Cl)c1)c1ccncc1,–,–,–,AC50 (INS1): 4.88 µM (active)
Cc1cc(SCC(=O)N/N=C/c2ccccc2C(=O)O)c(C)cc1Br,–,> 350 µM (not active),> 350 µM (not active),–
COc1ccc(/C=N/NC(=O)c2cccnc2)c(C(=O)O)c1OC,> 260 µM (inactive),–,–,–
